For one test, the target named is T1, RET(KD: 658-1114 G810R) (Homo sapiens, UniProt P07949, G810R).
T1 construct: 658-1114; expressed in transfected cells; host or cells: 293T.165 (293T cells, generated in-house)
T1 sequence (P07949 658-1114 G810R): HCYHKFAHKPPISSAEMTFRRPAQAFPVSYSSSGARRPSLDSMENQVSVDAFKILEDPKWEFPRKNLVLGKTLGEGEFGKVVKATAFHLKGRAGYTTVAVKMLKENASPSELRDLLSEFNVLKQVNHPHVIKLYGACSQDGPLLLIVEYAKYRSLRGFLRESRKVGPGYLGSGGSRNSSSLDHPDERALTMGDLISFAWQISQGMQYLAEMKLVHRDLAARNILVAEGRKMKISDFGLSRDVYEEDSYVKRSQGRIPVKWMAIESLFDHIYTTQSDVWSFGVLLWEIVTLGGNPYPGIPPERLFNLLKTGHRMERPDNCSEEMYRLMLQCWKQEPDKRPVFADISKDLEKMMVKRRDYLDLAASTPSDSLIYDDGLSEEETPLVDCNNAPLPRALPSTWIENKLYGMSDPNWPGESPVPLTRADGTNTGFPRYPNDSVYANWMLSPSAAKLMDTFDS
Kind of test: HiBiT-Degradation, RET G810R degradation assay (Nano-Glo HiBiT Lytic), 293T.165 cells. The test is classed as cell-based. The conditions noted are these: for Emax / DC50: 6.0 hours; for Emax: % remaining protein, read-out: 293T.165 RET(KD: 658-1114 G810R) 6.0 hours (Emax); for DC50: read-out: 293T.165 RET(KD: 658-1114 G810R) 6.0 hours (DC50). The method, boiled down:
(§1)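 HEK293T lines expressing HiBiT-tagged RET kinase domain, wild-type (293T.144) or G810R (293T.165), treated 6 h in duplicate, 11-point half-log series from 10 μM top. Lytic HiBiT luminescence read; DC50 and Emax (% protein remaining) from dose-response curves.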
Background: HiBiT is a short tag that completes a luciferase, so light tracks the accessible tagged protein.

A further test has as its target T2, RET (658-1114) (Homo sapiens, UniProt P07949).
T2 construct: 658-1114; expressed in transfected cells; host or cells: 293T.144 (293T cells, generated in-house)
T2 sequence (P07949 658-1114): T1 sequence (P07949 658-1114 G810R) with R153G
Kind of test: HiBiT-Degradation, RET wild-type degradation assay (Nano-Glo HiBiT Lytic), 293T.144 cells. The test is classed as cell-based. The conditions noted are these: for Emax / DC50: 6.0 hours; for Emax: read-out: 293T.144 RET (658-1114) 6.0 hours (Emax); for DC50: read-out: 293T.144 RET (658-1114) 6.0 hours (DC50). In a few lines: as §1

[1] abbreviates: half-maximal degradation concentration.

Structures are written as SMILES. Residue numbers refer to the chain shown, from its start. Where two headings read alike, the source gives them in different places.

For `N#Cc1cnn2cc(-c3ccc(N4CCN(C(=O)CC5(O)CCN(c6ccc(NC7CCC(=O)NC7=O)cc6F)CC5)CC4)cc3)nc(-c3ccc(N4CC5CC(C4)N5Cc4ccccc4)nc3)c12` (stereo not shown) [Compound 177, 4-(6-(6-benzyl-3,6-diazabicyclo[3.1.1]heptan-3-yl)pyridin-3-yl)-6-(4-(4-(2-(1-(4-((2,6-dioxopiperidin-3-yl)amino)-2-fluorophenyl)-4-hydroxypiperidin-4-yl)acetyl)piperazin-1-yl)phenyl)pyrazolo[1,5-a]pyrazine-3-carbonitrile], the “293T.165 RET(KD: 658-1114 G810R) 6.0 hours (IP) [nM]” value at RET(KD: 658-1114 G810R) is reported as “++++ (<50 nM = ++++)”. Besides, the Emax on RET(KD: 658-1114 G810R) and on RET (658-1114) (% remaining protein) was less than 30% in each case. Also, the 50% degradation concentration (DC50) (usually the concentration at which degradation of the target reaches its halfway point) on RET(KD: 658-1114 G810R) (setting [1]) was less than 100 nM; at RET (658-1114) (setting [1]) it was less than 50 nM. Moreover, the “293T.144 RET (658-1114) 6.0 hours (IP) [nM]” value (from here on “293T.144 RET”) on RET (658-1114) was “++++ (<50 nM = ++++)”.

On to `CCC1(C(=O)NC(C)(C)C)CCN(c2ccc(-c3nc(-c4cnn([C@H]5CC[C@H](N6CCN(c7c(F)cc(N[C@@H]8CCC(=O)NC8=O)cc7F)CC6)CC5)c4)cn4ncc(C#N)c34)cn2)CC1` (racemic) [Compound 219, N-tert-butyl-1-[5-[3-cyano-6-[1-[4-[4-[2,6-difluoro-4-[[rac-(3R)-2,6-dioxo-3-piperidyl]amino]phenyl]piperazin-1-yl]cyclohexyl]pyrazol-4-yl]pyrazolo[1,5-a]pyrazin-4-yl]-2-pyridyl]-4-ethyl-piperidine-4-carboxamide], for which the “293T.165 RET(KD: 658-1114 G810R) 6.0 hours (IP) [nM]” value on RET(KD: 658-1114 G810R) is on record as “+++ (<100 nM = +++)”. Further, the Emax on RET(KD: 658-1114 G810R) and at RET (658-1114) (% remaining protein) was less than 30% in each case. The DC50 on RET(KD: 658-1114 G810R) (setting [1]) and at RET (658-1114) (setting [1]) was less than 50 nM each time. For the same compound, the “293T.144 RET” value at RET (658-1114) was “++++ (<50 nM = ++++)”.

For `CCC1(C(=O)NC(C)(C)C)CCN(c2ccc(-c3nc(-c4cnn([C@H]5CC[C@H](N6CCC(c7ccc(N[C@H]8CCC(=O)NC8=O)cc7F)CC6)CC5)c4)cn4ncc(C#N)c34)cn2)CC1` (single isomer, unassigned) [Compound 145], the “293T.165 RET(KD: 658-1114 G810R) 6.0 hours (IP) [nM]” value on RET(KD: 658-1114 G810R) was “++++ (<50 nM = ++++)”. Moreover, the maximal effect (Emax) at RET(KD: 658-1114 G810R) and on RET (658-1114) (% remaining protein) was less than 30% each time. Also, the half-maximal degradation concentration (DC50) at RET(KD: 658-1114 G810R) (setting [1]) and at RET (658-1114) (setting [1]) was less than 50 nM each time. The “293T.144 RET” value at RET (658-1114) is “++++ (<50 nM = ++++)”.

For `N#Cc1cnn2cc(-c3cnn(C4CCN(C(=O)CC5(O)CCN(c6ccc(NC7CCC(=O)NC7=O)cc6F)CC5)CC4)c3)cc(-c3ccc(N4CCC(c5ccc(O)cc5)CC4)nc3)c12` (stereo not shown) [Compound 197, 6-[1-[1-[2-[1-[4-[(2,6-dioxo-3-piperidyl)amino]-2-fluoro-phenyl]-4-hydroxy-4-piperidyl]acetyl]-4-piperidyl]pyrazol-4-yl]-4-[6-[4-(4-hydroxyphenyl)-1-piperidyl]-3-pyridyl]pyrazolo[1,5-a]pyridine-3-carbonitrile], at RET(KD: 658-1114 G810R), the “293T.165 RET(KD: 658-1114 G810R) 6.0 hours (IP) [nM]” value is recorded as “++++ (<50 nM = ++++)”. The Emax on RET(KD: 658-1114 G810R) and at RET (658-1114) (% remaining protein) was less than 30% in each case. Besides, the DC50 at RET(KD: 658-1114 G810R) (setting [1]) and at RET (658-1114) (setting [1]) was less than 50 nM in each case. Also, the “293T.144 RET” value at RET (658-1114) was “++++ (<50 nM = ++++)”.

On to `N#Cc1cnn2cc(-c3ccc(N4CCN(C(=O)CN5CCC(c6ccc(NC7CCC(=O)NC7=O)cc6F)CC5)CC4)cc3)nc(-c3ccc(N4CCN(C(=O)Cc5ccc(F)cn5)CC4)nc3)c12` (stereo not shown) [Compound 52, 6-[4-[4-[2-[4-[4-[(2,6-dioxo-3-piperidyl)amino]-2-fluoro-phenyl]-1-piperidyl]acetyl]piperazin-1-yl]phenyl]-4-[6-[4-[2-(5-fluoro-2-pyridyl)acetyl]piperazin-1-yl]-3-pyridyl]pyrazolo[1,5-a]pyrazine-3-carbonitrile], for which the Emax (in general, the greatest response seen or fitted, relative to the assay's reference) at RET(KD: 658-1114 G810R) is less than 50%. The 50% degradation concentration (DC50) at RET(KD: 658-1114 G810R) (setting [1]) is less than 100 nM. On RET(KD: 658-1114 G810R) (HiBiT-Degradation), the “293T.165 RET(KD: 658-1114 G810R) 6.0 hours (Emax)” value was “+++ (<50% = +++)”, the “293T.165 RET(KD: 658-1114 G810R) 6.0 hours (IP) [nM]” value was “++++ (< 50 nM = ++++)” and the DC50 was less than 100 nM. Moreover, on RET (658-1114) (HiBiT-Degradation), the “293T.144 RET” value is given as “++++ (< 50 nM = ++++)”, the half-maximal degradation concentration (DC50) is less than 50 nM and the maximal response (Emax) is less than 30%.

Turning to `N#Cc1cnn2cc(-c3cnn([C@H]4CC[C@@H](N5CCN(c6ccc(NC7CCC(=O)NC7=O)cc6F)CC5)CC4)c3)nc(-c3ccc(N4CC5CC(C4)N5CC4CCC(F)(F)CC4)nc3)c12` (single isomer, unassigned) [Compound 178, 4-(6-(6-((4,4-Difluorocyclohexyl)methyl)-3,6-diazabicyclo[3.1.1]heptan-3-yl)pyridin-3-yl)-6-(1-((1s, 4s)-4-(4-(4-((2,6-dioxopiperidin-3-yl)amino)-2-fluorophenyl)piperazin-1-yl)cyclohexyl)-1H-pyrazol-4-yl)pyrazolo[1,5-a]pyrazine-3-carbonitrile], the “293T.165 RET(KD: 658-1114 G810R) 6.0 hours (IP) [nM]” value at RET(KD: 658-1114 G810R) is on record as “++++ (<50 nM = ++++)”. Also, the Emax on RET(KD: 658-1114 G810R) and on RET (658-1114) (% remaining protein) was less than 30% in each case. The DC50 on RET(KD: 658-1114 G810R) (setting [1]) and at RET (658-1114) (setting [1]) was less than 50 nM each time. Besides, the “293T.144 RET” value on RET (658-1114) is “++++ (<50 nM = ++++)”.

Regarding `N#Cc1cnn2cc(-c3cnn([C@H]4CC[C@H](N5CCC(c6ccc(N[C@@H]7CCC(=O)NC7=O)cc6F)CC5)CC4)c3)nc(-c3ccc(N4CCC5(CC4)OCc4cccnc45)nc3)c12` (single isomer, unassigned) [Compound 180], the “293T.165 RET(KD: 658-1114 G810R) 6.0 hours (IP) [nM]” value on RET(KD: 658-1114 G810R) is given as “++++ (<50 nM = ++++)”. Further, the maximum response (Emax) on RET(KD: 658-1114 G810R) and at RET (658-1114) (% remaining protein) was less than 30% in each case. Besides, the DC50 on RET(KD: 658-1114 G810R) (setting [1]) and at RET (658-1114) (setting [1]) was less than 50 nM throughout. Besides, at RET (658-1114), the “293T.144 RET” value is reported as “++++ (<50 nM = ++++)”.

Turning to `C[C@H](c1ccccn1)N1CCN(c2ccc(-c3nc(-c4cnn(C5CCN(C(=O)CC6(O)CCN(c7ccc(NC8CCC(=O)NC8=O)cc7F)CC6)CC5)c4)cn4ncc(C#N)c34)cn2)CC1` (stereo partly drawn) [Compound 1, 6-[1-[1-[2-[1-[4-[(2,6-dioxo-3-piperidyl)amino]-2-fluoro-phenyl]-4-hydroxy-4-piperidyl]acetyl]-4-piperidyl]pyrazol-4-yl]-4-[6-[4-[(1R)-1-(2-pyridyl)ethyl]piperazin-1-yl]-3-pyridyl]pyrazolo[1,5-a]pyrazine-3-carbonitrile], the maximal response (Emax) on RET(KD: 658-1114 G810R) was less than 50%. For the same compound, the half-maximal degradation concentration (DC50) at RET(KD: 658-1114 G810R) (setting [1]) is less than 50 nM. Also, at RET(KD: 658-1114 G810R) (HiBiT-Degradation), the “293T.165 RET(KD: 658-1114 G810R) 6.0 hours (Emax)” value is “+++ (<50% = +++)”, the “293T.165 RET(KD: 658-1114 G810R) 6.0 hours (IP) [nM]” value is listed as “++++ (< 50 nM = ++++)” and the half-maximal degradation concentration (DC50) was less than 50 nM. Moreover, at RET (658-1114) (HiBiT-Degradation), the “293T.144 RET” value was “++++ (< 50 nM = ++++)”, the DC50 was less than 50 nM and the Emax was less than 30%.

For `COc1ccc(CC2(OC)CCN(c3ccc(-c4nc(-c5cnn([C@H]6CC[C@@H](N7CCN(c8ccc(NC9CCC(=O)NC9=O)cc8F)CC7)CC6)c5)cn5ncc(C#N)c45)cn3)CC2)cn1` (single isomer, unassigned) [Compound 147, 6-(1-((1s, 4s)-4-(4-(4-((2,6-Dioxopiperidin-3-yl)amino)-2-fluorophenyl)piperazin-1-yl)cyclohexyl)-1H-pyrazol-4-yl)-4-(6-(4-methoxy-4-((6-methoxypyridin-3-yl)methyl)piperidin-1-yl)pyridin-3-yl)pyrazolo[1,5-a]pyrazine-3-carbonitrile], on RET(KD: 658-1114 G810R), the “293T.165 RET(KD: 658-1114 G810R) 6.0 hours (IP) [nM]” value is recorded as “++++ (<50 nM = ++++)”. Also, the maximal response (Emax) at RET(KD: 658-1114 G810R) and at RET (658-1114) (% remaining protein) was less than 30% throughout. The DC50 is less than 100 nM on RET(KD: 658-1114 G810R) (setting [1]) and less than 50 nM at RET (658-1114) (setting [1]). In addition, on RET (658-1114), the “293T.144 RET” value is listed as “++++ (<50 nM = ++++)”.
